Assay type in all cases: functional, cell-based
One test deals with MDA-MB-231. The test can be described thus: Cytotoxicity against human MDA-MB-231 cells assessed as reduction in cell viability incubated for 48 hrs by MTT assay. The conditions noted are these: MDA-MB-231, 48 h.
For a further test, the system named is A549. The test can be described thus: Cytotoxicity against human A549 cells assessed as reduction in cell viability incubated for 48 hrs by MTT assay. The conditions noted are these: A549, 48 h.
Another test deals with HeLa. Briefly: Cytotoxicity against human HeLa cells assessed as reduction in cell viability incubated for 48 hrs by MTT assay.
The test system of the next test is SK-OV-3. The test can be described thus: Cytotoxicity against human SK-OV-3 cells assessed as reduction in cell viability incubated for 48 hrs by MTT assay. The conditions noted are these: SK-OV-3, 48 h.
The next test concerns Huh-7. The test can be described thus: Cytotoxicity against human Huh-7 cells assessed as reduction in cell viability incubated for 48 hrs by MTT assay. The conditions noted are these: Huh-7, 48 h.
For a further test, the system named is HCT-116. Briefly: Cytotoxicity against human HCT-116 cells assessed as reduction in cell viability incubated for 48 hrs by MTT assay. The following applies: HCT-116, 48 h.

The values below come from ChEMBL document CHEMBL4665693, “Amentotaxins C-V, Structurally Diverse Diterpenoids from the Leaves and Twigs of the Vulnerable Conifer Amentotaxus argotaenia and Their Cytotoxic Effects” (J Nat Prod, 2020).

The structures appear in SMILES notation.

Regarding `C=C1[C@H](O)C[C@@H]2[C@@](C)(CO)CCC[C@@]2(C)[C@@H]1C/C=C(\C)C=O`, the IC50 is 1.5 µM in the test on MDA-MB-231; more than 10 µM with A549; more than 10 µM in the test on HeLa; more than 10 µM with SK-OV-3; more than 10 µM with Huh-7; more than 10 µM with HCT-116.

Take `C=C1C(=O)[C@]23CC[C@H]4[C@@](C)(CC[C@@H](O)[C@@]45CO5)[C@@H]2CC[C@H]1C3`: the half-inhibitory concentration (IC50) amounted to 6.8 µM in the test on MDA-MB-231; 9.8 µM in the test on A549; 5.1 µM with HeLa; 2.9 µM in the test with SK-OV-3; 4.1 µM in the test with Huh-7; 1.9 µM in the test on HCT-116.

`C=C1[C@H](O)C[C@@H]2[C@@](C)(CO)CCC[C@@]2(C)[C@@H]1C[C@H]1OC(=O)C=C1C`: the IC50 in the test on MDA-MB-231 was 1.6 µM; in the test on A549 it was more than 10 µM; in the test on HeLa, more than 10 µM; with SK-OV-3, more than 10 µM; in the test on Huh-7, more than 10 µM; in the test on HCT-116 it was more than 10 µM.

`C=C1C(=O)[C@]23CC[C@@H]4[C@@](C)(CO)CCC[C@@]4(C)[C@@H]2CC[C@H]1C3`: the IC50 is 10 µM with MDA-MB-231; 8.1 µM in the test with A549; more than 10 µM with HeLa; 6.9 µM in the test on SK-OV-3; 9.7 µM in the test with Huh-7; 2.9 µM in the test on HCT-116.

Regarding `CC(C)c1cc2c(cc1O)[C@@]1(C)CC[C@H](O)C(C)(C)[C@@H]1CC2=O`, the concentration for half-maximal inhibition (IC50) is 1.6 µM with MDA-MB-231; more than 10 µM in the test with A549; more than 10 µM with HeLa; more than 10 µM in the test on SK-OV-3; more than 10 µM with Huh-7; more than 10 µM in the test with HCT-116.

For `C=C1C[C@@]23C[C@@H]1CC[C@H]2[C@]1(C)CCC[C@@](C)(C(=O)O)[C@H]1[C@@H](O)[C@@H]3O`, the concentration for half-maximal inhibition (IC50) in the test with MDA-MB-231, with A549, with HeLa, with SK-OV-3, in the test with Huh-7 and in the test on HCT-116 was more than 10 µM throughout.

As for `C=C1[C@H](O)C[C@@H]2[C@@](C)(CO)CCC[C@@]2(C)[C@@H]1/C=C/C(C)=O`, the IC50 with MDA-MB-231 was 3 µM; with A549, more than 10 µM; in the test on HeLa it was more than 10 µM; in the test with SK-OV-3, more than 10 µM; in the test with Huh-7, more than 10 µM; with HCT-116, more than 10 µM.

In the case of `CC(=O)O[C@H]1C(=O)[C@@]2(C)[C@H]([C@H](OC(=O)c3ccccc3)[C@]3(O)C[C@H](OC(=O)[C@H](O)[C@@H](NC(=O)c4ccccc4)c4ccccc4)C(C)=C1C3(C)C)[C@]1(OC(C)=O)CO[C@@H]1C[C@@H]2O` [PACLITAXEL], the IC50 in the test with HeLa came out at 0.004 µM; in the test on Huh-7 it was 0.005 µM.
